Data from US4792554A, “Pyridine compounds, pharaceutical compositions, their use in allergy therapy” (priority 1985, dated 1988).
Where a name gives a salt, the structure may show the parent alone. Read-outs that look alike come from different tables or passages of the source.

Experiments:
bradykinin = assay: Antagonistic action towards bradykinin: inhibition of bradykinin-induced bronchospasm in anesthetized guinea pigs (Konzett-Rössler); format: in vivo, guinea pig; conditions: Cavia porcellus, iv, read-out: Inhibitory action towards bradykinin (ED50)
Procedure: (§1) 1. Antagonistic action towards the allergy mediators (on anesthetized guinea pigs)
(§2) The test substances were administered intravenously in aqueous solution injected in a volume of 1 ml/kg.

[1] = Acute toxicity, mortality within 7 days after single i.p. administration to NMRI mice; conditions: in vivo, ip, mouse i.p.
Procedure: The LD50 values were determined by the standard method of the mortality occurring within 7 days after a single intraperitoneal (i.p.) administration to NMRI mice (NMRI=Naval Medical Research Institute).

mast cells [2] = assay: Passive cutaneous anaphylaxis (PCA) in the rat, inhibition of mediator release (protective effect on mast cells); format: in vivo; conditions: for inhibition in vivo at 25 mg/kg: oral dose 25 mg/kg; for inhibition in vivo at 50 mg/kg: oral dose 50 mg/kg
Description: (a) Passive cutaneous anaphylaxis (PCA) in the rat (PCA test) Passive cutaneous anaphylaxis is an IgE-mediated allergy of the immediate type (type I). In this model, antibodies bound to mast cells and basophilic granulocytes react with an intravenously administered antigen with release of excessive amount of the allergy mediators. The histamine which is released during this can be visualized by simultaneous application of Evans blue to the shaven flanks of the rats. Photometric evaluation of the color intensity was used to determine, by means of the percentage inhibition of mediator release compared with untreated control animals, the protective effect on mast cells of the compound according to the invention after oral administration.

[3] = test system: rat peritoneal mast cells; assay: Histamine release from isolated rat mast cells induced by calcium ionophore A 23 187; format: cell-based; conditions: for IC50: Mast cell, 0.25 h, 15 min incubation, A 23 187 10^-6 g/ml, read-out: Inhibitory action in the Ca ionophore test IC50
Procedure: (b) Histamine release from isolated rat mast celss induced by calcium ionophore A 23 187 […] […] For this purpose, 10^4 cells were suspended in Clicks/RPMI (50:50, vol.; supplied by Serva, Heidelberg) tissue culture medium, incubated with the test substance for 15 minutes, and then treated with calcium ionophore A 23 187 at a concentration of 10^-6 g/ml. The released histamine was determined by high-pressure liquid chromatography (HPLC). The measure used for the inhibitory action was the IC50 which represents the molar concentration (mol/l) at which the induced histamine release was decreased to one half that of cells which had not been pretreated with a product. In this context, IC50 values above 10^-5 mol/l are regarded as therapeutically irrelevant.

[4] = state of the art; cited from earlier work
[5] = long-term therapy, state of the art; cited from earlier work
[6] = cited from earlier work
mast cells [7] = conditions: British Pat. No. 1,144,905; cited from earlier work
histamine = assay: Antagonistic action towards histamine: inhibition of histamine-induced bronchospasm in anesthetized guinea pigs (Konzett-Rössler); format: in vivo, guinea pig; conditions: Cavia porcellus, iv, read-out: Inhibitory action towards histamine (ED50)
Procedure: as §1, §2

[8] = Anticholinergic action in the Konzett-Rössler model; format: in vivo, guinea pig
[9] = test system: platelet activating factor (PAF); assay: Antagonism of PAF-induced bronchospasm in anesthetized rats; format: in vivo, rat; conditions: PAF test
Procedure: The compounds of the formula I and their salts additionally show a pronounced inhibitory action on platelet activating factor (PAF) and the leukotrienes, which are likewise released as spasmogenic mediators from the mast cells during the course of the immediate anaphylactic reaction. It was possible to antagonize the bronchospasm induced in anesthetized rats by administration of PAF by, for example, intravenous administration of the compound of Example 3 with a ED50 of 1-3 mg/kg. The said products of the state of the art, such as oxatomide, ketotiphen and terfenadine, have no action in this test. The contractions induced by calcium ionophore A 23 187 in isolated strips of lung and the isolated trachea of guinea pigs were inhibited by, for example, the compound of Example 3 with an IC50 of 0.1-0.3 μg/ml. Since calcium ionophore A 23 187 stimulates 5-lipoxygenase and thus promotes the formation of spasmogenic leukotrienes, a possible interpretation of the result of this experiment is that the compounds according to the invention are potent leukotriene inhibitors.

[10] = test system: spontaneous motility of the mouse; assay: Spontaneous motility of the mouse (central sedation); format: in vivo; conditions: oral, 1 mg/kg
[11] = test system: histamine and leukotrienes; conditions: state of the art; cited from earlier work
[12] = test system: airway obstruction induced by histamine aerosol; assay: Plethysmographic investigation on conscious guinea pigs with airway obstruction induced by inhalation of histamine aerosol; format: in vivo, guinea pig; conditions: oral, 0.3% strength histamine aerosol
[13] = state of the art; cited from earlier work; remark: listed apart in the source
[14] = anesthetized guinea pigs, dose reducing induced spasm to one half

Structure (SMILES)	ED50 (bradykinin; [14]) [mg/kg]	LD50 at 168 h [1] [mg/kg]	inhibition in vivo at 50 mg/kg (mast cells [2]; Mast cell) [%]	IC50 [3] [nM]	ED50 (histamine; [14]) [mg/kg]	further results
Cc1cc(N2CCSCC2)c([N+](=O)[O-])c(C)n1.Cl [4-(2,6-dimethyl-3-nitro-4-pyridyl)thiomorpholine hydrochloride, reference compound]	3.16	150 to 300	13	< 100000		inhibition in vivo at 12.5 mg/kg (mast cells [2]; Mast cell, oral dose 12.5 mg/kg): 0%; inhibition in vivo at 25 mg/kg (mast cells [2]; Mast cell): 0%; protective effect on mast cells in PCA test (in words) (mast cells [2]; oral administration): inactive; inhibition of histamine release in the Ca ionophore test (in words) [3]: inactive
COc1ccc(CCN2CCC(Nc3nc4ccccc4n3Cc3ccc(F)cc3)CC2)cc1 [ASTEMIZOLE]						solubility in water [4]: insolubility in water; weight gain [5]: undesired weight gain; sedation ([6]; side effect, state of the art): no sedative side effect
O=C(O)c1cc(=O)c2c(OCC(O)COc3cccc4oc(C(=O)O)cc(=O)c34)cccc2o1 [CHROMOGLICIC ACID]						stabilizing mast cells (mast cells [7]): stabilizing mast cells
Cc1cc(NCCN2CCN(C(c3ccccc3)c3ccccc3)CC2)c([N+](=O)[O-])c(C)[n+]1[O-].Cl.Cl.Cl.O.O [Example 1, 2,6-Dimethyl-3-nitro-4-[(2-{4-diphenylmethyl-1-piperazinyl}ethyl)amino]pyridine 1-oxide trihydrochloride dihydrate]		> 150	91	100		ED50 (histamine): 0.3 to 1 mg/kg; ED50 (bradykinin): 1 to 3 mg/kg
Cc1cc(NCCN2CCN(Cc3ccccc3)CC2)c([N+](=O)[O-])c(C)n1 [Example 2, 4-[(2-(4-benzyl-1-piperazinyl)ethyl)amino]-2,6-dimethyl-3-nitropyridinetrihydrochloride]			67	10000		
Cc1cc(NCCN2CCN(C(c3ccccc3)c3ccccc3)CC2)c(N)c(C)n1.Cl.Cl.Cl.O.O [Example 4, 3-amino-2,6-dimethyl-4-[(2-{4-diphenylmethyl-1-piperazinyl}ethyl)amino]pyridine trihydrochloride dihydrate]			73	50		anticholinergic action [8]: strong anticholinergic action
Cc1cc(NCCN2CCN(C(c3ccccc3)c3ccccc3)CC2)c(C(=O)O)c(C)n1.Cl.Cl.Cl.O.O [Example 5, 2,6-dimethyl-4-[(2-{4-diphenylmethyl-1-piperazinyl}-ethyl)amino]pyridine-3-carboxylic acid trihydrochloride dihydrate]		300 to 600	91	100		ED50 (histamine): 1 to 3 mg/kg; ED50 (bradykinin): 3 mg/kg; anticholinergic action [8]: strong anticholinergic action
Cc1cc(NCCN2CCC(=C(c3ccccc3)c3ccccc3)CC2)c([N+](=O)[O-])c(C)n1.Cl.Cl.O.O [Example 6, 2,6-dimethyl-3-nitro-4-[(2-{4-diphenylmethylene-1-piperidyl}ethyl)amino]pyridine dihydrochloride dihydrate]		600 to 1200	91			ED50 (histamine): 1 to 3 mg/kg; ED50 (bradykinin): 3 to 6 mg/kg
Cc1cc(NCCCN2CCN(C(c3ccccc3)c3ccccc3)CC2)c([N+](=O)[O-])c(C)n1 [Example 7]	3 to 10	150 to 300	55	10	3	
Cc1cc(NCCN2CCN(CC=Cc3ccccc3)CC2)c([N+](=O)[O-])c(C)n1 [Example 8]	3 to 10	75 to 150	60	100	3	
Cc1cc(NCCN2CCN(C(c3ccccc3)c3ccccc3)CC2)c(C#N)c(C)n1 [Example 9]	3 to 10	300 to 600	64	10	0.3 to 1	
Cc1cc(NCCN2CCN(C(c3ccccc3)c3ccccc3)CC2)c(C#N)c(C)[n+]1[O-] [Example 10]	1 to 3	75 to 150	91	< 10	0.1 to 0.3	
CCCc1cc(NCCN2CCN(C(c3ccccc3)c3ccccc3)CC2)c([N+](=O)[O-])c(CCC)n1 [Example 12]			61			
Cc1cc(N(C)CCN2CCN(C(c3ccccc3)c3ccccc3)CC2)c([N+](=O)[O-])c(C)n1 [Example 13]	10	150 to 300	68	< 10	1 to 3	
Cc1cc(NCCN2CCN(C(c3ccccc3)c3ccc(Cl)cc3)CC2)c([N+](=O)[O-])c(C)n1 (stereo not drawn) [Example 14]	3 to 10	150 to 300	55	1000	1 to 3	
Cc1cc(NCCN2CCN(C(c3ccc(F)cc3)c3ccc(F)cc3)CC2)c([N+](=O)[O-])c(C)n1 [Example 15]	3 to 6	300 to 600	59	100	1 to 3	
Cc1cc(NCCN2CCN(C(c3ccncc3)c3ccc(Cl)cc3)CC2)c([N+](=O)[O-])c(C)n1 (stereo not drawn) [Example 16]	1	300 to 600	75	100	1	inhibition in vivo at 25 mg/kg (mast cells [2]; Mast cell): 46%
Cc1cc(NCCN2CCC(C(O)(c3ccccc3)c3ccccc3)CC2)c([N+](=O)[O-])c(C)n1 [Example 17, 4-[(2-{4-hydroxy(diphenyl)methyl-1-piperidyl}ethyl)amino]-2,6-dimethyl-3-nitropyridine dihydrochloride]	3 to 10	75 to 150	91	< 10	0.3	
O=[N+]([O-])c1cnccc1NCCN1CCN(C(c2ccccc2)c2ccccc2)CC1 [Example 21]	0.03	150 to 300			0.02	
CN1CCC(=C2c3ccccc3CC(=O)c3sccc32)CC1 [ketotifen]						action on PAF / PAF-induced bronchospasm (in words) [9]: no action; reduction in the spontaneous motility [10]: significant; antagonistic properties for histamine and leukotrienes [11]: antagonistic properties for histamine and leukotrienes; sedation ([6]; side effect, state of the art): pronounced sedation
O=c1[nH]c2ccccc2n1CCCN1CCN(C(c2ccccc2)c2ccccc2)CC1 [oxatomide]						action on PAF / PAF-induced bronchospasm (in words) [9]: no action; ED50 ([12]; Cavia porcellus): 25 mg/kg; time after administration to maximum effect [12]: 90 min; onset of action [13]: does not exert its action until several days have passed; antagonistic properties for histamine and leukotrienes [11]: antagonistic properties for histamine and leukotrienes; sedation ([6]; side effect, state of the art): pronounced sedation
CC(C)(C)c1ccc(C(O)CCCN2CCC(C(O)(c3ccccc3)c3ccccc3)CC2)cc1 (stereo not drawn) [terfenadine]						action on PAF / PAF-induced bronchospasm (in words) [9]: no action; solubility in water [4]: insolubility in water; weight gain [5]: undesired weight gain; sedation ([6]; in vivo): no sedative side effect
